# Results: patent US20040024024A1, “Aromatic sulfone hydroxamates and their use as protease inhibitors” (priority 2001, published 2004)
# Legend:
# Assay in all cases: In vitro MMP inhibition, IC50 determination (fluorogenic substrate I)
# Format in all cases: biochemical
# [1] = molecular target: T1, Human recombinant MMP-1 (Homo sapiens, UniProt P03956)
# T1 construct: made in house; host or cells: MMP-1-transfected HT-1080 cells (spent media)
# T1 sequence (P03956 100-469): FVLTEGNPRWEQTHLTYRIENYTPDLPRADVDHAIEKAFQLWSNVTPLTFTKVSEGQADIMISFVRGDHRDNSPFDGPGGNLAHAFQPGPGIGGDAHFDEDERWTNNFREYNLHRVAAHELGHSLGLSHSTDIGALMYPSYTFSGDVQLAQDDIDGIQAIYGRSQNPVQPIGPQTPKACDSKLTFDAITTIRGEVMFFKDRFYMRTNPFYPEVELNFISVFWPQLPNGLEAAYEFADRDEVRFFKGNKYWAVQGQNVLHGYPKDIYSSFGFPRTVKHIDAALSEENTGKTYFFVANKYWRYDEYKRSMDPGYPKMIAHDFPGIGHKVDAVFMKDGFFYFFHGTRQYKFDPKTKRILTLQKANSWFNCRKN
# Summary of the method: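 APMA- or trypsin-activated enzyme, purified from spent media of transfected HT-1080 cells, incubated at room temperature with 4 μM MCA-Pro-Leu-Gly-Leu-Dpa-Ala-Arg-NH2 and graded inhibitor in Tris buffer pH 7.5 (10 mM CaCl2, 0.05% Brij). Cleavage read by fluorescence (ex 328/em 415 nm); IC50 from fluorescence reduction versus inhibitor concentration.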
# [2] = molecular target: T2, Human recombinant MMP-2 (Homo sapiens, UniProt P08253)
# T2 construct: made in house; host or cells: MMP-2-transfected p2AHT2 cells
# T2 sequence (P08253 110-660): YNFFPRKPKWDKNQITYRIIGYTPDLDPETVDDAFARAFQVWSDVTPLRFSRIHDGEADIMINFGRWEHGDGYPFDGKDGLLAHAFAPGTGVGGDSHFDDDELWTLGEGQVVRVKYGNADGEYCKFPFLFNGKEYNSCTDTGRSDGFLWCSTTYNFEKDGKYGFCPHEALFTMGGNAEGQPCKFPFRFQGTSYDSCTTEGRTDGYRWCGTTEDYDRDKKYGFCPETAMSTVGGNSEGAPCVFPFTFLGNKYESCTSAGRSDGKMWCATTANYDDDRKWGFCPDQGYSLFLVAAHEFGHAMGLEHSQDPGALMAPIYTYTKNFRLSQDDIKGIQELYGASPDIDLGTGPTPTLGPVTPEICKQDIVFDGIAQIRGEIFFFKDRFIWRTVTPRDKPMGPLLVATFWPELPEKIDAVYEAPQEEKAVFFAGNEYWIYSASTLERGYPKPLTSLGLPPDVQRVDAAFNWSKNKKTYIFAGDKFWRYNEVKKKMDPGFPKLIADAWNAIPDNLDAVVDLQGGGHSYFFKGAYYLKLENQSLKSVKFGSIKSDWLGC
# Summary of the method: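 APMA- or trypsin-activated recombinant MMP-2 was incubated at room temperature with serial inhibitor dilutions in Tris buffer pH 7.5 (100 mM NaCl, 10 mM CaCl2, 0.05% Brij), with DMSO from 1% stocks, and 4 μM substrate I. Cleavage was read by fluorescence at 328/415 nm; IC50 was taken from the loss of fluorescence versus inhibitor concentration.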
# [3] = molecular target: T3, Human recombinant MMP-9 (Homo sapiens, UniProt P14780)
# T3 construct: made in house; host or cells: MMP-9-transfected HT1080 cells (spent media)
# T3 sequence (P14780 107-707 limits assumed): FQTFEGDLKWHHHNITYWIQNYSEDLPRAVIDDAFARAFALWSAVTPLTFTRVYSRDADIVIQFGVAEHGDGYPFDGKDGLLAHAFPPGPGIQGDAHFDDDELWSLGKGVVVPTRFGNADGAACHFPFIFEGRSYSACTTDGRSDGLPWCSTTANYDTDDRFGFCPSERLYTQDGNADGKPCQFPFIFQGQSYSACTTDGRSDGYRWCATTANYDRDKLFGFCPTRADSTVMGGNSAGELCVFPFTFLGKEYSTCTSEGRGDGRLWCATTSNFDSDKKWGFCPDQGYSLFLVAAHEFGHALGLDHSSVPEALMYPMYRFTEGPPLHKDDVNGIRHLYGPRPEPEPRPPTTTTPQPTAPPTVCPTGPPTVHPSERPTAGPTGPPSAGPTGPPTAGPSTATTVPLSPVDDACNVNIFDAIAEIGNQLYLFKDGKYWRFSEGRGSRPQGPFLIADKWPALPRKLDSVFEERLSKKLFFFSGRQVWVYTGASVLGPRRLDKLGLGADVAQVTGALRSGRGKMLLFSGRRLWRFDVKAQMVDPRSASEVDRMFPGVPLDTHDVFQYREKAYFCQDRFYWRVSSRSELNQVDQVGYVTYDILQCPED
# Summary of the method: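 MMP-9 proenzyme purified from transfected HT1080 cell media, activated with APMA or trypsin. Compound dilutions in pH 7.5 Tris/NaCl/CaCl2 buffer with 0.05% polyoxyethylene 23 lauryl ether, incubated at room temperature with 4 μM MCA/Dpa substrate I. IC50 from fluorescence loss (ex 328, em 415 nm) versus inhibitor concentration.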
# [4] = molecular target: T4, Human recombinant MMP-13 (Homo sapiens, UniProt P45452)
# T4 construct: made in house; host or cells: baculovirus / insect cells
# Summary of the method: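 Fluorescence at 415 nm (excitation 328 nm) reports Gly-Leu cleavage of 4 μM quenched methoxycoumarin peptide substrate I. Human recombinant MMP-13, activated by trypsin or APMA, was incubated at room temperature with varied inhibitor concentrations in pH 7.5 Tris/NaCl/CaCl2 buffer; IC50 derived from reduced fluorescence.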
# [5] = molecular target: T5, Human recombinant MMP-14 (Homo sapiens, UniProt P50281)
# T5 construct: The catalytic domain enzyme was expressed in E. coli inclusion bodies, solubilized in urea; made in house
# Summary of the method: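 Catalytic-domain MMP-14, expressed in E. coli and refolded, activated with APMA or trypsin; compounds incubated at room temperature with 4 μM fluorogenic substrate I (MCA-PLGL-Dpa-AR-NH2) in Tris/NaCl/CaCl2 buffer, pH 7.5. Fluorescence at ex 328/em 415 nm; IC50 from loss of fluorescence versus inhibitor concentration.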
# [6] = value outside parentheses (Ki in parenthesis)
"IC50 [1, 6] [nM]","IC50 [2, 6] [nM]","IC50 [3, 6] [nM]","IC50 [4, 6] [nM]","IC50 [5, 6] [nM]",IC50 ([1]; value outside parenthesis) [nM],IC50 ([2]; value outside parenthesis) [nM],IC50 ([3]; value outside parenthesis) [nM],IC50 ([4]; value outside parenthesis) [nM],IC50 ([5]; value outside parenthesis) [nM],Compound,further results
,,,,,,,,,,O=C(NO)C1(S(=O)(=O)c2ccc(OCCCS(=O)(=O)NC34CC5CC(CC(C5)C3)C4)cc2)CCOCC1 [Example 645],IC50 ([1]; value outside parentheses): 9280 nM; IC50 ([2]; value outside parentheses): 22.9 nM; IC50 ([3]; value outside parentheses): 1730 nM; IC50 ([4]; value outside parentheses): 4.3 nM; IC50 ([5]; value outside parentheses): > 10000 nM
2990,4.2,500,0.5,8000,,,,,,O=C(CCCCOc1ccc(S(=O)(=O)C2(C(=O)NO)CCOCC2)cc1)c1cccs1 [Example 324],
> 10000,15.6,172,2.6,> 10000,,,,,,CCCC(=O)C(C)CCOc1ccc(S(=O)(=O)C2(C(=O)NO)CCOCC2)cc1 (centres unmarked) [Example 295],
9000,13,110,2,2290,,,,,,O=C(NO)C1(S(=O)(=O)c2ccc(OCCCSCc3cccc(OC(F)(F)F)c3)cc2)CCOCC1 [Example 441],
> 10000,41.2,2170,2,> 10000,,,,,,O=C(CCCCOc1ccc(S(=O)(=O)C2(C(=O)NO)CCOCC2)cc1)c1cccc2ccccc12 [Example 342],
> 10000,23,160,1,5640,,,,,,O=C(NO)C1(S(=O)(=O)c2ccc(OCCSc3nc4c(Cl)cc(Cl)cc4o3)cc2)CCOCC1 [Example 409],
,,,,,,,,,,CN(C(=O)CCCOc1ccc(S(=O)(=O)C2(C(=O)NO)CCOCC2)cc1)c1ccccc1 [Example 654],IC50 ([1]; value outside parentheses): > 10000 nM; IC50 ([2]; value outside parentheses): 160 nM; IC50 ([3]; value outside parentheses): 970 nM; IC50 ([4]; value outside parentheses): 0.55 nM; IC50 ([5]; value outside parentheses): > 10000 nM
> 10000,33.1,1650,0.8,> 10000,,,,,,O=C(CCCOc1ccc(S(=O)(=O)C2(C(=O)NO)CCOCC2)cc1)c1ccc(-c2ccccc2)cc1 [Example 356],
,,,,,> 10000,172,906,1.4,> 10000,CC(C)Oc1ccc(-c2nnc(CCCOc3ccc(S(=O)(=O)C4(C(=O)NO)CCOCC4)cc3)o2)cc1 [Example 209],
,,,,,,,,,,O=C(NO)C1(S(=O)(=O)c2ccc(OCCCSc3nc4ccccc4s3)cc2)CCN(CC2CC2)CC1 [Example 614],IC50 ([1]; value outside parentheses): > 10000 nM; IC50 ([2]; value outside parentheses): 1.8 nM; IC50 ([3]; value outside parentheses): 8.5 nM; IC50 ([4]; value outside parentheses): 0.7 nM; IC50 ([5]; value outside parentheses): 9440 nM
,,,,,,,,,,O=C(NO)C1(S(=O)(=O)c2ccc(OCCOc3ccc4c(c3)OCO4)cc2)CCOCC1 [Example 665],IC50 ([1]; value outside parentheses): > 10000 nM; IC50 ([2]; value outside parentheses): 11.6 nM; IC50 ([3]; value outside parentheses): 44.3 nM; IC50 ([4]; value outside parentheses): 2.39 nM; IC50 ([5]; value outside parentheses): 2130 nM
3080,9,116,2.7,832,,,,,,O=C(NO)C1(S(=O)(=O)c2ccc(OCCCOc3ccc4ccccc4c3)cc2)CCOCC1 [Example 448],
,,,,,> 10000,74.2,878,5.6,> 10000,O=C1CN(c2cccc(OC(F)(F)F)c2)C(=O)N1CCCOc1ccc(S(=O)(=O)C2(C(=O)NO)CCOCC2)cc1 [Example 232],
,,,,,> 10000,138,968,1.7,> 10000,Cc1cc(C(=O)CCCCOc2ccc(S(=O)(=O)C3(C(=O)NO)CCN(C4CC4)CC3)cc2)ccc1OC(C)C [Example 254],
,,,,,> 10000,92.6,59.4,15.8,3110,CCCc1ccc(-c2nc(CCCOc3ccc(S(=O)(=O)C4(C(=O)NO)CCN(CCOC)CC4)cc3)oc2C)cc1 [Example 206],
> 10000,1100,9600,2.4,> 10000,,,,,,Cc1ccc(C(=O)NCCCOc2ccc(S(=O)(=O)C3(C(=O)NO)CCOCC3)cc2)cc1C [Example 371],
,,,,,> 10000,391,203,9.1,> 10000,O=C(NO)C1(S(=O)(=O)c2ccc(OCCCc3nc(-c4cccc(OC(F)(F)F)c4)no3)cc2)CCOCC1 [Example 266],
,,,,,> 10000,163,287,5.3,> 10000,CCOc1ccccc1-c1noc(CCCOc2ccc(S(=O)(=O)C3(C(=O)NO)CCOCC3)cc2)n1 [Example 264],
,,,,,,,,,,O=C(NO)C1(S(=O)(=O)c2ccc(OCCSc3nc4ccc(Cl)cc4o3)cc2)CCOCC1 [Example 502],IC50 ([1]; value outside parentheses): > 10000 nM; IC50 ([2]; value outside parentheses): 22.7 nM; IC50 ([3]; value outside parentheses): 160 nM; IC50 ([4]; value outside parentheses): 1 nM; IC50 ([5]; value outside parentheses): 5640 nM
,,,,,> 10000,2380,> 10000,7.7,> 10000,CC(C)[C@H]1C(=O)N(CCCOc2ccc(S(=O)(=O)C3(C(=O)NO)CCOCC3)cc2)C(=O)N1c1ccccc1 [Example 134],
,,,,,> 10000,247,1900,2.1,> 10000,CCN1CCC(C(=O)NO)(S(=O)(=O)c2ccc(OCCCc3cccc(-c4ccc(F)cc4)c3)cc2)CC1 [Example 138],
,,,,,399,4.2,152,2.8,> 10000,O=C(CCCOc1ccc(S(=O)(=O)C2(C(=O)NO)CCOCC2)cc1)NNC(=O)c1ccc(Cl)cc1 [Example 272],
,,,,,7500,84,1210,0.6,> 10000,O=C(NO)C1(S(=O)(=O)c2ccc(OCCCc3nnc(-c4ccc(OC(F)(F)F)cc4)o3)cc2)CCOCC1 [Example 200],
> 10000,120,244,3.1,> 10000,,,,,,Cc1oc(CCCOc2ccc(S(=O)(=O)C3(C(=O)NO)CCOCC3)cc2)nc1-c1ccccc1 [Example 317],
,,,,,> 10000,20.3,768,0.3,> 10000,O=C(NO)C1(S(=O)(=O)c2ccc(OCCCc3nc(-c4ccc5c(c4)OCO5)no3)cc2)CCOCC1 [Example 215],
,,,,,> 10000,230,6590,0.6,> 10000,O=C(NCCCOc1ccc(S(=O)(=O)C2(C(=O)NO)CCN(C3CC3)CC2)cc1)c1ccc(OC(F)(F)F)cc1 [Example 208],
> 10000,176,1600,3.7,> 10000,,,,,,C[C@@H]1[C@H](c2ccccc2)OC(=O)N1CCCOc1ccc(S(=O)(=O)C2(C(=O)NO)CCOCC2)cc1 [Example 308],
,,,,,> 10000,6.9,285,1.3,> 10000,O=C(NO)C1(S(=O)(=O)c2ccc(OCCCc3nc(-c4cccc([N+](=O)[O-])c4)no3)cc2)CCOCC1 [Example 210],
